From US12247015B2, “3-amino-4H-benzo[e][1,2,4]thiadiazine 1,1-dioxide derivatives as inhibitors of MRGX2” (Solent Therapeutics, LLC, priority 2019, dated 2025)

Biological target: hMRGX2 (CHO-K1 cells overexpressing MRGX2) (Homo sapiens (Human), UniProt Q96LB1)
Experiment: In vitro inhibition (EC50) of intracellular calcium flux, FLIPR Tetra, substance P stimulation
Format: cell-based
Details: stimulated with MRGX2 ligand substance P, FLIPR Calcium 5, read-out: hMRGX2 Cellular Potency (pEC50) (converted)
Experimental: In Vitro Inhibition (EC50) of Intracellular Calcium Flux
The release of intracellular calcium following stimulation of cells with substance P in the presence or absence of inhibitor compounds was measured using the FLIPR Tetra® system. CHO-K1 cells overexpressing MRGX2 were seeded into 384-well plates (Black clear bottom, TC-treated, Fisher #07-200-655) and incubated overnight to allow for cell attachment. Media was removed, and 1× loading buffer (FLIPR® Calcium 5 assay solution, Molecular Devices, per manufacturer specifications) was added. The plates were incubated at 37° C. for 30 minutes. Test compounds were added to cells (11-point dose response, 10 µM maximum concentration) and fluorescence measured (120 seconds, in real time) using the FLIPR Tetra® system. Immediately following, MRGX2 ligand substance P was added at a final concentration of 1 µM and fluorescence measured (120 seconds, in real time) using the FLIPR Tetra® system. The data for the examples are reported as pEC50.

hMRGX2 (CHO-K1 cells overexpressing MRGX2), sequence (Q96LB1 whole entry): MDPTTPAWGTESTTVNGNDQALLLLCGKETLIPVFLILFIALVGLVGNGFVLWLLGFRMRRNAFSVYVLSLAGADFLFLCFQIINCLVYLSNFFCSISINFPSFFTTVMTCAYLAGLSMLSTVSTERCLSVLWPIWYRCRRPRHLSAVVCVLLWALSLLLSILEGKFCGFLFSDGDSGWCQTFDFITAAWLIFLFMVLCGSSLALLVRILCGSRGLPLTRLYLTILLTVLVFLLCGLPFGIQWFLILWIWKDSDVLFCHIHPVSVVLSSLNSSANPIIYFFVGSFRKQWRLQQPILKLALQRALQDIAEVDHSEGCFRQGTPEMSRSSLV

CC(C)c1ccc(NC2=NS(=O)(=O)c3cccc(-c4ccccc4Cl)c3N2)cn1 [Example 117, 5-(2-chlorophenyl)-3-((6-isopropylpyridin-3-yl)amino)-4H-benzo[e][1,2,4]thiadiazine 1,1-dioxide]
EC50: 0.197 µM

O=S1(=O)N=C(NCc2ccccn2)Nc2c(-c3cc(F)cc(F)c3F)cccc21 [Example 131, 3-((pyridin-2-ylmethyl)amino)-5-(2,3,5-trifluorophenyl)-4H-benzo[e][1,2,4]thiadiazine 1,1-dioxide]
EC50: 0.0885 µM

COCCNC1=NS(=O)(=O)c2cccc(-c3cccc(Cl)c3F)c2N1 [Example 135, 5-(3-chloro-2-fluorophenyl)-3-((2-methoxyethyl)amino)-4H-benzo[e][1,2,4]thiadiazine 1,1-dioxide]
EC50: 0.841 µM

O=S1(=O)N=C(NCc2cccc(F)n2)Nc2c(-c3cccc(F)c3Cl)cccc21 [Example 148, 5-(2-chloro-3-fluorophenyl)-3-(((6-fluoropyridin-2-yl)methyl)amino)-4H-benzo[e][1,2,4]thiadiazine 1,1-dioxide]
EC50: 0.017 µM

O=S1(=O)N=C(NCCC2CCCO2)Nc2c(-c3cccc(F)c3Cl)cccc21 (stereo not drawn) [Example 73, 5-(2-chloro-3-fluorophenyl)-3-((2-(tetrahydrofuran-2-yl)ethyl)amino)-4H-benzo[e][1,2,4]thiadiazine 1,1-dioxide]
EC50: 0.139 µM

Cc1cc(-c2cccc3c2NC(Nc2ccc(C(C)C)cc2)=NS3(=O)=O)n[nH]1 [Example 98, 3-((4-isopropylphenyl)amino)-5-(5-methyl-1H-pyrazol-3-yl)-4H-benzo[e][1,2,4]thiadiazine 1,1-dioxide]
EC50: 0.289 µM

O=S1(=O)N=C(NCc2ccccn2)Nc2c(-c3ccccc3Cl)cccc21 [Example 41, 5-(2-chlorophenyl)-3-((pyridin-2-ylmethyl)amino)-4H-benzo[e][1,2,4]thiadiazine 1,1-dioxide]
EC50: 0.0264 µM

CO[C@H](C)CNC1=NS(=O)(=O)c2cccc(-c3cccc(F)c3Cl)c2N1 [Example 47, (R)-5-(2-chloro-3-fluorophenyl)-3-((2-methoxypropyl)amino)-4H-benzo[e][1,2,4]thiadiazine 1,1-dioxide]
EC50: 0.0933 µM

COC1CC(NC2=NS(=O)(=O)c3cccc(-c4cccc(F)c4Cl)c3N2)C1 (stereo not drawn) [Example 167, 5-(2-chloro-3-fluorophenyl)-3-((3-methoxycyclobutyl)amino)-4H-benzo[e][1,2,4]thiadiazine 1,1-dioxide]
EC50: 0.394 µM

O=S1(=O)N=C(NCCCF)Nc2c(-c3cccc(F)c3Cl)cccc21 [Example 152, 5-(2-chloro-3-fluorophenyl)-3-((3-fluoropropyl)amino)-4H-benzo[e][1,2,4]thiadiazine 1,1-dioxide]
EC50: 0.223 µM

O=S1(=O)N=C(Nc2ccccc2)Nc2c(C3CC3)cccc21 [Example 121, 5-cyclopropyl-3-(phenylamino)-4H-benzo[e][1,2,4]thiadiazine 1,1-dioxide]
EC50: 0.431 µM

COCCNC1=NS(=O)(=O)c2cccc(-c3cc(F)cc(F)c3Cl)c2N1 [Example 32, 5-(2-chloro-3,5-difluorophenyl)-3-((2-methoxyethyl)amino)-4H-benzo[e][1,2,4]thiadiazine 1,1-dioxide]
EC50: 0.0357 µM

CC(C)c1ccc(NC2=NS(=O)(=O)c3cccc(C4CCC4)c3N2)cc1 [Example 111, 5-cyclobutyl-3-((4-isopropylphenyl)amino)-4H-benzo[e][1,2,4]thiadiazine 1,1-dioxide]
EC50: 0.106 µM

COCCNC1=NS(=O)(=O)c2cccc(-c3ccccc3C(F)(F)F)c2N1 [Example 124, 3-((2-methoxyethyl)amino)-5-(2-(trifluoromethyl)phenyl)-4H-benzo[e][1,2,4]thiadiazine 1,1-dioxide]
EC50: 0.0644 µM

O=S1(=O)N=C(NCC2CC2)Nc2c(-c3ccnc(F)c3Cl)cccc21 [Example 50, 5-(3-chloro-2-fluoropyridin-4-yl)-3-((cyclopropylmethyl)amino)-4H-benzo[e][1,2,4]thiadiazine 1,1-dioxide]
EC50: 0.0708 µM

COC(C)CNC1=NS(=O)(=O)c2cccc(-c3cn(C)nc3C)c2N1 (stereo not drawn) [Example 60, 5-(1,3-dimethyl-1H-pyrazol-4-yl)-3-((2-methoxypropyl)amino)-4H-benzo[e][1,2,4]thiadiazine 1,1-dioxide]
EC50: 0.865 µM

CCNC1=NS(=O)(=O)c2cccc(-c3cccc(F)c3F)c2N1 [Example 165, 5-(2,3-difluorophenyl)-3-(ethylamino)-4H-benzo[e][1,2,4]thiadiazine 1,1-dioxide]
EC50: 0.288 µM

O=S1(=O)N=C(NCCc2ccccn2)Nc2c(-c3cccc(F)c3Cl)cccc21 [Example 67, 5-(2-chloro-3-fluorophenyl)-3-((2-(pyridin-2-yl)ethyl)amino)-4H-benzo[e][1,2,4]thiadiazine 1,1-dioxide]
EC50: 0.0366 µM

COCCNC1=NS(=O)(=O)c2cccc(-c3cc(C(F)(F)F)ccc3Cl)c2N1 [Example 134, 5-(2-chloro-5-(trifluoromethyl)phenyl)-3-((2-methoxyethyl)amino)-4H-benzo[e][1,2,4]thiadiazine 1,1-dioxide]
EC50: 0.723 µM

CNC1=NS(=O)(=O)c2cccc(-c3cccc(F)c3C3CC3)c2N1 [Example 157, 5-(2-cyclopropyl-3-fluorophenyl)-3-(methylamino)-4H-benzo[e][1,2,4]thiadiazine 1,1-dioxide]
EC50: 0.0562 µM

CNC1=NS(=O)(=O)c2cccc(-c3ccc(F)cc3Cl)c2N1 [Example 94, 5-(2-chloro-4-fluorophenyl)-3-(methylamino)-4H-benzo[e][1,2,4]thiadiazine 1,1-dioxide]
EC50: 0.235 µM

CCOC(C)CNC1=NS(=O)(=O)c2cccc(-c3cccc(F)c3Cl)c2N1 (stereo not drawn) [Example 58, 5-(2-chloro-3-fluorophenyl)-3-((2-ethoxypropyl)amino)-4H-benzo[e][1,2,4]thiadiazine 1,1-dioxide]
EC50: 0.179 µM

CO[C@H](C)CNC1=NS(=O)(=O)c2cccc(-c3cc(F)cc(F)c3F)c2N1 (single isomer, unassigned) [Example 129]
EC50: 2.69 µM

COC(C)CNC1=NS(=O)(=O)c2cccc(-c3cc(F)ccc3F)c2N1 (stereo not drawn) [Example 142, 5-(2,5-difluorophenyl)-3-((2-methoxypropyl)amino)-4H-benzo[e][1,2,4]thiadiazine 1,1-dioxide]
EC50: 0.244 µM

CC(C)c1ccc(NC2=NS(=O)(=O)c3cccc(-c4cnn(C5COC5)c4)c3N2)cc1 [Example 101, 3-((4-isopropylphenyl)amino)-5-(1-(oxetan-3-yl)-1H-pyrazol-4-yl)-4H-benzo[e][1,2,4]thiadiazine 1,1-dioxide]
EC50: 0.0457 µM

CO[C@@H](C)CNC1=NS(=O)(=O)c2cccc(-c3cccc(F)c3F)c2N1 [Example 25, (S)-5-(2,3-difluorophenyl)-3-((2-methoxypropyl)amino)-4H-benzo[e][1,2,4]thiadiazine 1,1-dioxide]
EC50: 2.75 µM

CN(C)C(=O)CNC1=NS(=O)(=O)c2cccc(-c3cccc(F)c3Cl)c2N1 [Example 62, 2-((5-(2-chloro-3-fluorophenyl)-1,1-dioxido-4H-benzol[e][1,2,4]thiadiazin-3-yl)amino)-N,N-dimethylacetamide]
EC50: 0.279 µM

O=S1(=O)N=C(NCC2CCC2)Nc2c(-c3cccc(F)c3F)cccc21 [Example 22, 3-((cyclobutylmethyl)amino)-5-(2,3-difluorophenyl)-4H-benzo[e][1,2,4]thiadiazine 1,1-dioxide]
EC50: 0.0805 µM

CNC1=NS(=O)(=O)c2cc(C)cc(-c3cccc(F)c3Cl)c2N1 [Example 97, 5-(2-chloro-3-fluorophenyl)-7-methyl-3-(methylamino)-4H-benzo[e][1,2,4]thiadiazine 1,1-dioxide]
EC50: 0.589 µM

Cc1nn(C)cc1-c1cccc2c1NC(NCC1CCC1)=NS2(=O)=O [Example 61, 3-((cyclobutylmethyl)amino)-5-(1,3-dimethyl-1H-pyrazol-4-yl)-4H-benzo[e][1,2,4]thiadiazine 1,1-dioxide]
EC50: 0.43 µM

COC(C)CNC1=NS(=O)(=O)c2cccc(-c3cccc(F)c3F)c2N1 (racemic) [Example 23, 5-(2,3-difluorophenyl)-3-((2-methoxypropyl)amino)-4H-benzo[e][1,2,4]thiadiazine 1,1-dioxide]
EC50: 0.0411 µM

COCCNC1=NS(=O)(=O)c2cccc(-c3cccc(C(F)(F)F)c3Cl)c2N1 [Example 132, 5-(2-chloro-3-(trifluoromethyl)phenyl)-3-((2-methoxyethyl)amino)-4H-benzo[e][1,2,4]thiadiazine 1,1-dioxide]
EC50: 0.281 µM

CO[C@H](C)CNC1=NS(=O)(=O)c2cccc(-c3cc(F)cc(F)c3)c2N1 (single isomer, unassigned) [Example 85]
EC50: 0.249 µM

COC(C)CCNC1=NS(=O)(=O)c2cccc(-c3cccc(F)c3Cl)c2N1 (racemic) [Example 153, 5-(2-chloro-3-fluorophenyl)-3-((3-methoxybutyl)amino)-4H-benzo[e][1,2,4]thiadiazine 1,1-dioxide]
EC50: 0.0273 µM

O=S1(=O)N=C(NCc2ncccc2F)Nc2c(C3CC3)cccc21 [Example 119, 5-cyclopropyl-3-(((3-fluoropyridin-2-yl)methyl)amino)-4H-benzo[e][1,2,4]thiadiazine 1,1-dioxide]
EC50: 0.484 µM

Cc1cnccc1-c1cccc2c1NC(Nc1ccc(C(C)C)cc1)=NS2(=O)=O [Example 113, 3-((4-isopropylphenyl)amino)-5-(3-methylpyridin-4-yl)-4H-benzo[e][1,2,4]thiadiazine 1,1-dioxide]
EC50: 0.233 µM
